Results as given in ChEMBL document CHEMBL6092150, “Exploration of isatin-based inhibitors of SARS-CoV-2 Nsp15 endoribonuclease” (Eur J Med Chem, 2024).

Assays:
[1] = tested on: SARS-CoV-2; experiment: Antiviral activity against SARS-CoV-2 Omicron BA.7 variant infected in human A549 cells transfected with human ACE2 and TMPRSS2 assessed as fold reduction in viral RNA load at 80 uM incubated for 3 days by qRT-PCR analysis relative to control; assay type: functional, Severe acute respiratory syndrome coronavirus 2; conditions: time 3 day
[2] = tested on: SARS-CoV-2; experiment: Antiviral activity against SARS-CoV-2 Omicron BA.7 variant infected in human A549 cells transfected with human ACE2 and TMPRSS2 assessed as fold reduction in viral RNA load incubated for 3 days by qRT-PCR analysis; assay type: functional; conditions: Severe acute respiratory syndrome coronavirus 2, Omicron BA.7, A549, 72 h; time 3 day
[3] = tested on: SARS-CoV-2; experiment: Antiviral activity against SARS-CoV-2 Omicron BA.7 variant infected in human A549 cells transfected with human ACE2 and TMPRSS2 assessed as fold reduction in viral RNA load at 40 uM incubated for 3 days by qRT-PCR analysis relative to control; assay type: functional, Severe acute respiratory syndrome coronavirus 2; conditions: time 3 day

In the case of `N#CC(C#N)=C1C(=O)Nc2ccc([N+](=O)[O-])cc21`, the “fold change (FC)” value [1] is reported as 425 and the EC90 [2] is reported as 54 µM.

For `N#CC(C#N)=C1C(=O)Nc2c(Br)cc(Br)cc21`, the “fold change (FC)” value [1] was 68000 and the EC90 [2] was 39 µM.

In the case of `N#C[C@@]1(c2ccc3c(N)ncnn23)O[C@H](CO)[C@@H](O)[C@H]1O` [GS-441524], the “fold change (FC)” value [3] is reported as 72000 and the EC90 [2] is reported as 2 µM.
